Assay results as given in patent US11479551B2, “MTA-cooperative PRMT5 inhibitors” (Mirati Therapeutics, Inc., priority 2019, dated 2022).
Where two headings read alike, the source gives them in different places.

Columns and labels:
HCT116 parental cells = assay: Proliferation assay (CellTiter-Glo, 10 days of treatment), HCT116 parental; type: cell-based
Method: (§1) Control samples were analyzed in parallel.
Briefly, on Day 0, 250 HCT116 parental or HCT116 homozygous MTAP knockout cell were seeded in 96 well plates in McCoy's 5A supplemented with 10% fetal bovine serum and pen/strep and the cells were incubated overnight at 37° C. plus 5% CO2.
The following day, cells were treated with DMSO vehicle control or a dose response of PRMT5 inhibitors and incubated at 37 C plus 5% CO2 for five days. On Day 6, the cells were trypsinized and split 1:10 into new 96-well plates with fresh medium containing the same concentration of PRMT5 inhibitor and incubated for an additional 5 days at 37° C. plus 5% CO^2.
On Day 11, the viability of the cells was measured using a CTG assay kit (CellTiter-Glo; Promega cat.no G7573) in accordance with the manufacturer's instructions. The IC50 values for each compound after 10 days of treatment were calculated using GraphPad PRISM software.

PRMT5/MEP50 complex [1] = biological target: T1, PRMT5/MEP50 complex (Homo sapiens (Human), UniProt O14744); assay: PRMT5:MEP50 HotSpot Assay (full-length histone H2A substrate, plus and minus MTA); type: biochemical; details: in the presence of 2 μM MTA
Summary of the method: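 Radiometric filter-binding format using recombinant full-length histone H2A as substrate. After the reaction was stopped, mixtures went onto filter paper and tritiated H2A was quantified by scintillation counting.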

[2] = test system: PRMT5-dependent Symmetric Di-methyl Arginine signal in HCT116 parental cells; assay: SYM11 In-Cell Western, HCT116 parental; type: cell-based; details: 4 days of treatment, SYM11/DRAQ5 ratio
Method: as §1
Briefly, on Day 0, 2,000 HCT116 parental or HCT116 homozygous MTAP knockout cells were seeded in 96 well plates in McCoy's 5A supplemented with 10% fetal bovine serum and pen/strep and the cells were incubated overnight at 37° C. plus 5% CO2. The following day, cells were treated with DMSO vehicle control or a dose response of PRMT5 inhibitors, and incubated at 37° C. plus 5% CO^2 for four days.
After 4 days of treatment, the cells were fixed by adding 50 μl of 4% paraformaldehyde solution to each well and the cells were incubated for 20 min at room temperature. The paraformaldehyde solution was removed, 150 μl of ice-cold methanol was added and the plate was placed −20° C. for 10 minutes. The methanol was removed, 150 μl of Odyssey Blocking buffer+0.05% Tween20 was added and the plate was incubated at room temperature with shaking for one hour.
The primary SYM11 antibody solution was removed by aspiration and the wells were washed three consecutive times with phosphate buffered saline containing 0.1% Tween-20 (PBST).
The secondary antibody solution was removed by aspiration and the wells were washed three consecutive times with PB ST.
The SYM11 signal and the DRAQ5 signal were quantified using a Li-Cor Odyssey machine reading at […], respectively. The SYM11/DRAQ5 ratio was used to calculate the inhibition of Symmetric Dimethyl Arginine as percent of DMSO control.

[3] = test system: PRMT5-dependent Symmetric Di-methyl Arginine signal in HCT116 homozygous MTAP knockout cells; assay: SYM11 In-Cell Western, HCT116 MTAP knockout; type: cell-based; details: HCT116 homozygous MTAP knockout cells, 4 days of treatment, SYM11/DRAQ5 ratio, read-out: In-cell-Western (SYM11) HCT116 MTAP_KO IC50
[4] = test system: HCT116 homozygous MTAP knockout cells; assay: Proliferation assay (CellTiter-Glo, 10 days of treatment), HCT116 MTAP knockout; type: cell-based; details: read-out: Proliferation HCT116MTAP_KO IC50
Summary of the method: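 Cells (250/well) seeded in McCoy's 5A with 10% FBS, then treated the next day with a PRMT5 inhibitor dose response at 37 °C, 5% CO2. On day 6 they were split 1:10 into fresh medium with the same compound concentration. CellTiter-Glo viability was read on day 11 and IC50 taken after 10 days of treatment.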

PRMT5/MEP50 complex [5] = biological target: T1, PRMT5/MEP50 complex; assay: PRMT5:MEP50 FlashPlate Assay (histone H4 peptide substrate, plus and minus MTA); type: biochemical
Method: The PRMT5 inhibitory activity of compounds of the present invention was determined using either a PRMT5:MEP50 FlashPlate Assay (Reaction Biology Corporation) or a PRMT5:MEP50 HotSpot Assay (Reaction Biology Corporation).
1. PRMT5:MEP50 FlashPlate Assay

T1 sequence (O14744 2-637): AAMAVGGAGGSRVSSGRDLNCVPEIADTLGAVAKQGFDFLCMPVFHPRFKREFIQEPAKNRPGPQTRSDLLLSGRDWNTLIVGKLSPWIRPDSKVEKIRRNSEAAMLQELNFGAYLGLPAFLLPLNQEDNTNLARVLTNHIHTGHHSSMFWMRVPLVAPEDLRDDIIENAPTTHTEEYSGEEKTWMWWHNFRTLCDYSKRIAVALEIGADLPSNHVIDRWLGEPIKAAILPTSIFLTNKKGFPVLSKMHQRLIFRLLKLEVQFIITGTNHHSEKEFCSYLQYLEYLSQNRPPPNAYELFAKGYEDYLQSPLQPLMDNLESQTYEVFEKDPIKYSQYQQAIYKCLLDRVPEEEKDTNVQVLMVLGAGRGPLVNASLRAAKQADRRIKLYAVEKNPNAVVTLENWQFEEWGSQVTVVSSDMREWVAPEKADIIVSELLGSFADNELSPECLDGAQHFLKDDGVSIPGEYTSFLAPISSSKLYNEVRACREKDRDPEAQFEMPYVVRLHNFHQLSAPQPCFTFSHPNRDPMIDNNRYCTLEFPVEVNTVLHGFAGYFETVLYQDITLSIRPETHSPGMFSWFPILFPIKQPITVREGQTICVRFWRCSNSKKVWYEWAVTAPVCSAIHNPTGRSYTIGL
T1 sequence (Q9BQA1 2-342 partner): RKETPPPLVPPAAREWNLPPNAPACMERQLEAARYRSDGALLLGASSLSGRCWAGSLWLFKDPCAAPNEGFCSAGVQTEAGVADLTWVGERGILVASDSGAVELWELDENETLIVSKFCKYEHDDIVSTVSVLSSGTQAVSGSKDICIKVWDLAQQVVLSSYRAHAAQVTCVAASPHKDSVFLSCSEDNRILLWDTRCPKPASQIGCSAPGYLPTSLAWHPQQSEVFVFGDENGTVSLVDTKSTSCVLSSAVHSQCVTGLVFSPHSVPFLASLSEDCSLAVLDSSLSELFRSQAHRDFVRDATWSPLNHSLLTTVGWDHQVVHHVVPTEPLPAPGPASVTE

Row | SMILES | IC50 (HCT116 parental cells) | IC50 (PRMT5/MEP50 complex [1]; read-out: IC50 + 2 μM MTA) | IC50 [2] | IC50 [3] | IC50 [4] | IC50 (HCT116 parental cells; Homo sapiens, HCT-116, 240 h) | IC50 (PRMT5/MEP50 complex [5]; IC50 + 2 μM MTA (nM), in the presence of 2 μM MTA) | IC50 (PRMT5/MEP50 complex [5]; in the absence of MTA, read-out: IC50) | IC50 ([2]; Homo sapiens, HCT-116, 96 h) | IC50 ([3]; Homo sapiens, HCT-116, 96 h) | IC50 ([4]; Homo sapiens, HCT-116, 240 h) | IC50 (PRMT5/MEP50 complex [1]; IC50 + 2 μM MTA)
1 | Cn1ncc(-c2ccc3c(=O)[nH]nc(CN)c3c2)c1-c1c(F)cc2ccccc2c1C#N (single isomer, unassigned) [Example 16-2] | 5920 nM | 111 nM | > 1000 nM | 73 nM | 224 nM |  |  |  |  |  |  | 
2 | NCc1n[nH]c(=O)c2ccc(-c3cncc(Oc4cccc(Cl)c4)c3)cc12 [Example 4-67, 4-(aminomethyl)-6-(5-(3-chlorophenoxy)pyridin-3-yl)phthalazin-1(2H)-one] |  |  |  |  |  | 7700 nM | 4 nM | 204 nM | 10000 nM | 945 nM | 2030 nM | 
3 | Cc1cc(C#N)c(-c2c(-c3ccc4c(=O)[nH]nc(CN)c4c3)cnn2C)cc1Cl [Example 4-127, 2-(4-(4-(aminomethyl)-1-oxo-1,2-dihydrophthalazin-6-yl)-1-methyl-1H-pyrazol-5-yl)-4-chloro-5-methylbenzonitrile] |  |  |  |  |  | > 10000 nM |  |  | 5920 nM | 25 nM | 615 nM | 2540 nM
4 | Cn1ncc(-c2ccc3c(=O)[nH]nc(CN)c3c2)c1-c1cc2ccccc2cc1C#N [Example 4-128, 3-(4-(4-(aminomethyl)-1-oxo-1,2-dihydrophthalazin-6-yl)-1-methyl-1H-pyrazol-5-yl)-2-naphthonitrile] |  |  |  |  |  | 9630 nM |  |  | 4020 nM | 39 nM | 427 nM | 1310 nM
5 | COc1cc(C#N)c(-c2c(-c3ccc4c(=O)[nH]nc(CN)c4c3)cnn2C)cc1OC [Example 4-129, 2-(4-(4-(aminomethyl)-1-oxo-1,2-dihydrophthalazin-6-yl)-1-methyl-1H-pyrazol-5-yl)-4,5-dimethoxybenzonitrile] |  |  |  |  |  | > 10000 nM |  |  | > 10000 nM | 380 nM | 1350 nM | 1650 nM
6 | COc1cc(-c2c(-c3ccc4c(=O)[nH]nc(CN)c4c3)cnn2C)c(C#N)cc1Cl [Example 4-130, 2-(4-(4-(aminomethyl)-1-oxo-1,2-dihydrophthalazin-6-yl)-1-methyl-1H-pyrazol-5-yl)-5-chloro-4-methoxybenzonitrile] |  |  |  |  |  | > 10000 nM |  |  | > 10000 nM | 24 nM | 756 nM | 1950 nM
7 | Cc1cc(C#N)c(-c2c(-c3ccc4c(=O)[nH]nc(CN)c4c3)cnn2C)cc1C [Example 4-131, 2-(4-(4-(aminomethyl)-1-oxo-1,2-dihydrophthalazin-6-yl)-1-methyl-1H-pyrazol-5-yl)-4-5-dimethylbenzonitrile] |  |  |  |  |  | > 10000 nM |  |  | 3250 nM | 43 nM | 847 nM | 1890 nM
8 | Cc1cc(-c2c(-c3ccc4c(=O)[nH]nc(CN)c4c3)cnn2C)c(C#N)cc1Cl [Example 4-132, 2-(4-(4-(aminomethyl)-1-oxo-1,2-dihydrophthalazin-6-yl)-1-methyl-1H-pyrazol-5-yl)-5-chloro-4-methylbenzonitrile] |  |  |  |  |  | > 10000 nM |  |  | > 10000 nM | 24 nM | 595 nM | 2560 nM
9 | CC(C)c1ccc(-c2c(-c3ccc4c(=O)[nH]nc(CN)c4c3)cnn2C)cc1 [Example 4-135, 4-(aminomethyl)-6-(5-(4-isopropylphenyl)-1-methyl-1H-pyrazol-4-yl)phthalazin-1(2H)-one] |  |  |  |  |  | 6610 nM |  |  | 3210 nM | 31 nM | 3760 nM | 641 nM
10 | Cn1ncc(-c2ccc3c(=O)[nH]nc(CN)c3c2)c1-c1cccc(OC2CCC2)c1 [Example 4-137, 4-(aminomethyl)-6-(5-(3-cyclobutoxyphenyl)-1-methyl-1H-pyrazol-4-yl)phthalazin-1(2H)-one] |  |  |  |  |  | > 10000 nM |  |  | 5180 nM | 88 nM | 3240 nM | 810 nM
11 | Cn1ncc(-c2ccc3c(=O)[nH]nc(CN)c3c2)c1-c1ccc2ccccc2c1 [Example 4-139, 4-(aminomethyl)-6-(1-methyl-5-(naphthalen-2-yl)-1H-pyrazol-4-yl)phthalazin-1(2H)-one] |  |  |  |  |  | 5070 nM |  |  | 5530 nM | 254 nM | 1490 nM | 1230 nM
12 | Cn1ncc(-c2ccc3c(=O)[nH]nc(CN)c3c2)c1-c1ccc(Cl)c(Cl)c1 [Example 4-140, 4-(aminomethyl)-6-(5-(3,4-dichlorophenyl)-1-methyl-1H-pyrazol-4-yl)phthalazin-1(2H)-one] |  |  |  |  |  | 6810 nM |  |  | > 10000 nM | 47 nM | 3870 nM | 1100 nM
13 | Cn1ncc(-c2ccc3c(=O)[nH]nc(CN)c3c2)c1-c1cc(Cl)cc(Cl)c1 [Example 4-141, 4-(aminomethyl)-6-(5-(3,5-dichlorophenyl)-1-methyl-1H-pyrazol-4-yl)phthalazin-1(2H)-one] |  |  |  |  |  | 5500 nM |  |  | 4960 nM | 88 nM | 2090 nM | 794 nM
14 | Cn1ncc(-c2ccc3c(=O)[nH]nc(CN)c3c2)c1-c1ccccc1F [Example 4-142, 4-(aminomethyl)-6-(5-(2-fluorophenyl)-1-methyl-1H-pyrazol-4-yl)phthalazin-1(2H)-one] |  |  |  |  |  | 5740 nM |  |  | 6270 nM | 49 nM | 1780 nM | 881 nM
15 | Cc1cc(OC2CC2)c(C#N)c(-c2c(-c3ccc4c(=O)[nH]nc(CN)c4c3)cnn2C)c1F [Example 4-241, 2-(4-(4-(aminomethyl)-1-oxo-1,2-dihydrophthalazin-6-yl)-1-methyl-1H-pyrazol-5-yl)-6-cyclopropoxy-3-fluoro-4-methylbenzonitrile] |  |  |  |  |  | 2400 nM |  |  | > 1000 nM | 14 nM | 51 nM | 
16 | Cn1ncc(-c2cc(Cl)c3c(=O)[nH]nc(CN)c3c2)c1-c1cc(Cl)cc(OC2CC2)c1C#N [Example 10-16, 2-(4-(4-(aminomethyl)-8-chloro-1-oxo-1,2-dihydrophthalazin-6-yl)-1-methyl-1H-pyrazol-5-yl)-4-chloro-6-cyclopropoxybenzonitrile] |  |  |  |  |  | 1760 nM |  |  | 86 nM | 48 nM | 86 nM | 
17 | Cc1cc(-c2c(-c3ccc4c(=O)[nH]nc(CN)c4c3)cnn2C)c(C#N)c2ccccc12 [Example 12-10, 2-(4-(4-(aminomethyl)-1-oxo-1,2-dihydrophthalazin-6-yl)-1-methyl-1H-pyrazol-5-yl)-4-methyl-1-naphthonitrile] |  |  |  |  |  | 1330 nM |  |  | > 1000 nM | 3 nM | 38 nM | 
18 | CCc1cc(-c2cnn(C)c2-c2ccc3ccccc3c2C#N)cc2c(CN)n[nH]c(=O)c12 [Example 15-1, 2-[4-[4-(aminomethyl)-8-ethyl-1-oxo-2H-phthalazin-6-yl]-2-methyl-pyrazol-3-yl]naphthalene-1-carbonitrile] |  |  |  |  |  | 1560 nM |  |  | > 1000 nM | 22 nM | 51 nM | 
